The structures appear in SMILES notation. “And” between values parts separate entries of the source, which are not always exact repeats. Equal entries are not always repeated. “Also recorded” adds a separate entry of the source. Where two headings read alike, the source gives them in different places.

In series [1] the target is T1, mushroom tyrosinase (Agaricus bisporus, UniProt C7FF04). As to the kind of experiment: Mushroom tyrosinase inhibitory assay (L-tyrosine substrate). Particulars: for inhibition at 50 µM / Tyrosinase Inhibition (%): L-tyrosine as substrate, mean ± SEM, NI means no inhibition, 50 μM; for IC50: mushroom tyrosinase, L-tyrosine, read-out: IC50. The format is biochemical. As for the experimental part: The experiment was repeated three times. Mushroom tyrosinase inhibitions % were calculated using:% Inhibition = [1 − (A/B)] × 100(1) where A is the absorbance of the test compound and B is the absorbance of the blank.
Log-linear curves were plotted, and their equations were determined.
Target sequence in this assay (C7FF04 1-392 limits assumed): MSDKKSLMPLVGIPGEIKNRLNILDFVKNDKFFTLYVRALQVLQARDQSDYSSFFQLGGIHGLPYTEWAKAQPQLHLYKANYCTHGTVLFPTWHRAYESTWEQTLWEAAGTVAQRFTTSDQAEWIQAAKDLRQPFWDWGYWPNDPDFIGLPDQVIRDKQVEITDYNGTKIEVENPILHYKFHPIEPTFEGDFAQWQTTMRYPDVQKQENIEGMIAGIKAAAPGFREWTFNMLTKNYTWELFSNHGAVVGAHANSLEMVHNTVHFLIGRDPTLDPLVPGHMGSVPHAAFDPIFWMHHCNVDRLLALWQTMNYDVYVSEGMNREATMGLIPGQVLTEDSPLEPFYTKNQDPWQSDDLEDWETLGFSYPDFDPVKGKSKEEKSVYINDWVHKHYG

In series [2] the test system is B16F10 melanoma cells. As to the kind of experiment: EZ-cytox cell viability assay. The format is cell-based, murine. Particulars: 1–20 µM, 24 h. As for the experimental part: (§1) EZ-cytox assays were performed to examine whether these compounds are cytotoxic.
(§2) B16F10 murine melanoma cells were purchased from the American Type Culture Collection (ATCC, Manassas, VA, USA). Cells were cultured in Dulbecco’s modified Eagle’s medium (10% fetal bovine serum (FBS), and 1% streptomycin) obtained from Gibco/Thermo Fisher Scientific (Carlsbad, CA, USA) at 37 °C in a 5% CO2 environment. These cultured cells were used for cell viability, melanin content, and cellular tyrosinase inhibitory assays.
(§3) EZ-cytox assays were performed on 1c, 1h, and 2a, according to previously described. B16F10 cells were seeded in a 96-well plate at a density of 5 × 10^4 cells/well and incubated at 37 °C in a humidified 5% CO2 atmosphere overnight. Cells were then treated with different concentrations of 1c, 1h, or 2a (0, 1, 2, 5, 10, or 20 µM) and incubated for 24 h under the same conditions. EZ-cytox solution (10 µL) was then added and the plate was incubated for 3 h at 37 °C in a humidified 5% CO2 atmosphere. Optical densities of wells were measured at 450 nm using an ELISA reader. All experiments were independently repeated three times.

Series [3] is described as follows: EZ-cytox cell viability assay. The format is cell-based, murine. Particulars: mouse, B16F10 melanoma cells, 20 µM. The protocol: as §1, §2, §3
For series [4], the target named is T1, mushroom tyrosinase. Briefly: Kinetic analysis of mushroom tyrosinase inhibition, Lineweaver–Burk plots. Particulars: for Mode of tyrosinase inhibition: Lineweaver–Burk analysis, L-tyrosine as substrate. The format is biochemical. As for the experimental part: Briefly, 170 μL of a mixture of an aqueous solution of L-[…].0, 2.0, 4.0, or 8.0 mM and 50 mM of potassium phosphate (pH 6.5) was added to a 96-well plate. […] Lineweaver-Burk plots were used to determine Vmax (maximal reaction rates) and KM (Michaelis-Menten constants) of mushroom tyrosinase activities.
Target sequence in this assay (C7FF04 1-392): as the sequence (C7FF04 1-392 limits assumed) above

In series [5] the test system is B16F10 melanoma cells. As to the kind of experiment: Melanin content assay in α-MSH plus IBMX-stimulated B16F10 melanoma cells. Particulars: 48 h. The format is cell-based, murine. As for the experimental part: Melanin contents in B16F10 cells were assessed by measuring optical densities spectrophotometrically. […] After washing cells with PBS two or three times, they were incubated for 1 h in 100 µL of 1N NaOH solution at 60 °C. […] All experiments were independently repeated three times.

In series [6] the target is T2, tyrosinase in B16F10 melanoma cells (Mus musculus, UniProt P11344).
T2 sequence (P11344 19-533): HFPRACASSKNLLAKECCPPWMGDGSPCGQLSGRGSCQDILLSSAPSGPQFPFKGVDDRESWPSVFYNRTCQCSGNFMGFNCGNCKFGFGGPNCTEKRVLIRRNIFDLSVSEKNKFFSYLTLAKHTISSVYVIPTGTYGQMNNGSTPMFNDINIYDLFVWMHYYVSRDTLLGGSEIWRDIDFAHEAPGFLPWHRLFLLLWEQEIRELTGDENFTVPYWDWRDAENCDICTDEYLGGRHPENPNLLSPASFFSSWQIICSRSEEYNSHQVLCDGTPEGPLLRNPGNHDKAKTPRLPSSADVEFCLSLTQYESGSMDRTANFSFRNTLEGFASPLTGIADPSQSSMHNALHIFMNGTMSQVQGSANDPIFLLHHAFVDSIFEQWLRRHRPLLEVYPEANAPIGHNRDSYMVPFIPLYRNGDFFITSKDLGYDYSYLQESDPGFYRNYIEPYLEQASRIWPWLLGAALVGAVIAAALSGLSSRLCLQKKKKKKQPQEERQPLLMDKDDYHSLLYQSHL
Briefly: Cellular tyrosinase activity in α-MSH plus IBMX-stimulated B16F10 melanoma cells. Particulars: 48 h.
Procedure: Cells were washed with PBS two or three times, lysed with a 100 μL of buffer (90 μL of PBS (50 mM), 5 μL of PMSF (0.1 mM), and 5 μL of 1% Triton X-100), frozen at −80 °C for 30 min, and centrifuged at 12,000 rpm for 30 min at 4 °C. Lysate supernatants (80 µL) were mixed with 20 µL of L-dopa (2 mg/mL) in a 96-well plate and incubated at 37 °C for 15 min. […] All the experiments were independently repeated three times.

[7] abbreviates: 1.56 μM, read-out: Average of Inhibition (%).
[8] abbreviates: 3.13 μM, read-out: Average of Inhibition (%).
Setting [9] is: 6.25 μM, read-out: Average of Inhibition (%).
[10] abbreviates: 6.25 μM, read-out: Inhibition (%), single determinations.
[11] abbreviates: 12.50 μM, read-out: Average of Inhibition (%).
[12] abbreviates: 12.50 μM, read-out: Inhibition (%), single determinations.
Where [13] appears, read: 25.00 μM, read-out: Average of Inhibition (%).
Setting [14] is: 25.00 μM, read-out: Inhibition (%), single determinations.
Setting [15] is: inhibitor 10 μM, L-tyrosine 1.0–8.0 mM.
The mark [16] stands for this setting: inhibitor 20 μM, L-tyrosine 1.0–8.0 mM.
Where [17] appears, read: inhibitor 40 μM, L-tyrosine 1.0–8.0 mM.
Setting [18] is: not dependent on inhibitor concentration.

With `COc1ccc2c(c1)oc(=O)c1ccccc12` [Compound 1b, 3-Methoxy-6H-benzo[c]chromen-6-one], at mushroom tyrosinase [1], the inhibition at 50 µM was less than 0%.

Regarding `O=c1oc2cc(O)cc(O)c2c2ccccc12` [Compound 1c, 1,3-Dihydroxy-6H-benzo[c]chromen-6-one], the “Inhibition (%), single determinations” value was 4.01% and 2.57% on mushroom tyrosinase [1] (1.56 μM); 10.84% and 9.94% on mushroom tyrosinase [1] (3.13 μM); 25.08% and 33.10% on mushroom tyrosinase [1] (6.25 μM); 45.18% and 48.37% at mushroom tyrosinase [1] (12.50 μM, 12.5 µM); 61.85% at mushroom tyrosinase [1] (25.00 μM). The inhibition at 1.56 µM was 3.06 ± 0.47% at mushroom tyrosinase [1] (setting [7]) and 2.61% at mushroom tyrosinase [1] (1.56 μM, read-out: Inhibition (%), single determinations). Moreover, the inhibition at 3.13 µM was determined as 10.1 ± 0.37% at mushroom tyrosinase [1] (setting [8]) and 9.61% at mushroom tyrosinase [1] (3.13 μM, read-out: Inhibition (%), single determinations). Moreover, the inhibition at 6.25 µM on mushroom tyrosinase [1] (setting [9]) amounted to 28.5 ± 2.39%; at mushroom tyrosinase [1] (setting [10]), 27.3%. The inhibition at 12.5 µM was 45.8 ± 1.37% at mushroom tyrosinase [1] (setting [11]) and 43.7% on mushroom tyrosinase [1] (setting [12]). Also, the inhibition at 25 µM at mushroom tyrosinase [1] (setting [13]) came out at 61.21 ± 0.32%; on mushroom tyrosinase [1] (setting [14]) it was 60.9%. Moreover, the “Tyrosinase Inhibition (%)” value on mushroom tyrosinase [1] is 68.93 ± 0.67%. At mushroom tyrosinase [1], this compound displayed an inhibition at 50 µM of 69%. Further, the IC50 on mushroom tyrosinase [1] was 18.1 ± 0.25 µM. Moreover, the Cytotoxic effect result in the series on B16F10 melanoma cells [2] is on record as “weakly cytotoxic”. In series [3], the viability at 24 h, 20 µM was determined as 71.4%. Besides, at mushroom tyrosinase [4], the “Mode of tyrosinase inhibition” value is reported as “competitive inhibitors”. In addition, the “Vmax” value on mushroom tyrosinase [4] (setting [15]), at mushroom tyrosinase [4] (setting [16]), on mushroom tyrosinase [4] (setting [17]) and at mushroom tyrosinase [4] (setting [18]) was 0.027 mM/min each time.

Turning to `COc1cc(OC)c2c(c1)oc(=O)c1ccccc12` [Compound 1d, 1,3-Dimethoxy-6H-benzo[c]chromen-6-one], the inhibition at 50 µM at mushroom tyrosinase [1] was less than 0%.

Regarding `O=c1oc2cc(O)cc(O)c2c2ccc(O)cc12` [Compound 1f, 1,3,8-Trihydroxy-6H-benzo[c]chromen-6-one], at mushroom tyrosinase [1], the “Tyrosinase Inhibition (%)” value came out at 12.68 ± 6.09% and testing at 50 µM gave an inhibition of 13%.

For the compound `COc1ccc2c(c1)c(=O)oc1cc(O)ccc12` [Compound 1g, 3-Hydroxy-8-methoxy-6H-benzo[c]chromen-6-one], the inhibition at 50 µM against mushroom tyrosinase [1] was less than 0%.

On mushroom tyrosinase [1], `COc1ccc2c(c1)oc(=O)c1cc(OC)ccc12` [Compound 1i, 3,8-Dimethoxy-6H-benzo[c]chromen-6-one] registered an inhibition at 50 µM of less than 0%.

On to `COc1cc(OC)c2c(c1)oc(=O)c1cc(OC)ccc12` [Compound 1j, 1,3,8-Trimethoxy-6H-benzo[c]chromen-6-one], for which, on mushroom tyrosinase [1], the inhibition at 50 µM is less than 0%.

Turning to `OCc1ccccc1-c1ccc(O)cc1O` [Compound 2a, 2′-(Hydroxymethyl)-[1,1′-biphenyl]-2,4-diol], the “Inhibition (%), single determinations” value on mushroom tyrosinase [1] (1.56 μM) was 0.27% and 0.72% and 1.06%; at mushroom tyrosinase [1] (6.25 μM), 31.66% and 31.22%; at mushroom tyrosinase [1] (12.50 μM, 12.5 µM), 50.39% and 54.31%; at mushroom tyrosinase [1] (25.00 μM), 68.71% and 69.37%. Also, on mushroom tyrosinase [1] (setting [7]), the inhibition at 1.56 µM was 0.68 ± 0.23%. Besides, on mushroom tyrosinase [1] (setting [8]), the inhibition at 3.13 µM was 15.1 ± 6.53%. The values for the inhibition at 6.25 µM on mushroom tyrosinase [1] (setting [9]) and on mushroom tyrosinase [1] (setting [10]) were 31.71 ± 0.3% and 32.2%, respectively. Also, the inhibition at 12.5 µM is 53.5 ± 1.62% on mushroom tyrosinase [1] (setting [11]) and 55.8% on mushroom tyrosinase [1] (setting [12]). Besides, the inhibition at 25 µM was 69.3 ± 0.32% on mushroom tyrosinase [1] (setting [13]) and 69.8% at mushroom tyrosinase [1] (setting [14]). At mushroom tyrosinase [1], the “Tyrosinase Inhibition (%)” value stood at 75.92 ± 2.19%. The same compound came in with an inhibition at 50 µM on mushroom tyrosinase [1] of 76%. Also, at mushroom tyrosinase [1], the IC50 came to 15.7 ± 0.4 µM. Moreover, in the series with B16F10 melanoma cells [2], the Cytotoxic effect entry is reported as “No significant cytotoxic effect; also recorded: not cytotoxic”. Besides, the Melanin content result was “more potently than kojic acid” in the series with B16F10 melanoma cells [5] (5 µM, kojic acid 20 µM as comparator); “more so than kojic acid” in the series with B16F10 melanoma cells [5] (20 μM, kojic acid 20 µM as comparator); “more strongly than KA; also recorded: reduced melanin levels significantly and concentration-dependently; also recorded: effectively and dose-dependently” in the series on B16F10 melanoma cells [5] (5, 10, 20 μM). In addition, the Cellular tyrosinase activity result in series [6] (10 μM, α-MSH plus IBMX, kojic acid 20 μM as comparator) is “greater at 10 μM than kojic acid at 20 μM”; in series [6] (20 μM, α-MSH plus IBMX, kojic acid 20 µM as comparator), “much higher than that of kojic acid; also recorded: reduced tyrosinase activity to the untreated control levels”; in series [6] (5, 10, 20 μM, α-MSH (1 μM) plus IBMX (200 μM)), “more strongly than KA; also recorded: decreased significantly and concentration-dependently; also recorded: effectively and dose-dependently”. For the same compound, the “Mode of tyrosinase inhibition” value at mushroom tyrosinase [4] is “competitive inhibitors”. In addition, the “Vmax” value at mushroom tyrosinase [4] (setting [15]), at mushroom tyrosinase [4] (setting [16]), at mushroom tyrosinase [4] (setting [17]) and at mushroom tyrosinase [4] (setting [18]) was 0.029 mM/min each time.

At mushroom tyrosinase [1], `COc1ccc(-c2ccccc2CO)c(O)c1` [Compound 2b, 2′-(Hydroxymethyl)-4-methoxy-[1,1′-biphenyl]-2-ol] registered an inhibition at 50 µM of less than 0%.

On to `OCc1ccccc1-c1c(O)cc(O)cc1O` [Compound 2c, 2′-(Hydroxymethyl)-[1,1′-biphenyl]-2,4,6-triol], for which, on mushroom tyrosinase [1], the “Tyrosinase Inhibition (%)” value is 19.78 ± 15.84% and the inhibition at 50 µM was 20%.

On to `COc1cc(O)c(-c2ccccc2CO)c(OC)c1` [Compound 2d, 2′-(Hydroxymethyl)-4,6-dimethoxy-[1,1′-biphenyl]-2-ol], for which the inhibition at 50 µM on mushroom tyrosinase [1] was less than 0%.

The compound `OCc1cc(O)ccc1-c1ccc(O)cc1O` [Compound 2e, 2′-(Hydroxymethyl)-[1,1′-biphenyl]-2,4,4′-triol] displayed an inhibition at 50 µM on mushroom tyrosinase [1] of less than 0%.

In turn, `COc1ccc(-c2ccc(O)cc2O)c(CO)c1` [Compound 2f, 2′-(Hydroxymethyl)-4′-methoxy-[1,1′-biphenyl]-2,4-diol] registered an inhibition at 50 µM against mushroom tyrosinase [1] of 47.9 ± 12.8%.

Compound `COc1ccc(-c2ccc(OC)cc2CO)c(O)c1` [Compound 2g, 2′-(Hydroxymethyl)-4,4′-dimethoxy-[1,1′-biphenyl]-2-ol] came in with an inhibition at 50 µM against mushroom tyrosinase [1] of less than 0%.

As for `COc1ccc(-c2c(O)cc(O)cc2O)c(CO)c1` [Compound 2h, 2′-(Hydroxymethyl)-4′-methoxy-[1,1′-biphenyl]-2,4,6-triol], on mushroom tyrosinase [1], the “Tyrosinase Inhibition (%)” value is on record as 26.30 ± 0.75% and the inhibition at 50 µM was determined as 26%.

As to `COc1ccc(-c2c(O)cc(OC)cc2OC)c(CO)c1` [Compound 2i, 2′-(Hydroxymethyl)-4,4′,6-trimethoxy-[1,1′-biphenyl]-2-ol], the inhibition at 50 µM on mushroom tyrosinase [1] was less than 0%.

Values taken from PMC8199067, “Urolithin and Reduced Urolithin Derivatives as Potent Inhibitors of Tyrosinase and Melanogenesis: Importance of the 4-Substituted Resorcinol Moiety” (International Journal of Molecular Sciences, 2021).
